Test results from PubChem BioAssay (NCI).
“And” between values parts separate entries of the source, which are not always exact repeats. Equal values may be shown once.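 Results reflect a 48-hour exposure of cells in 96-well plates to compound at five concentrations. GI50 marks 50% less growth. TGI denotes the concentration required for complete inhibition of growth.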

Assays:
Assay in all cases: NCI-60 cell line screen, 48 h
HL-60(TB) leukemia = tested on: HL-60(TB) leukemia
SK-MEL-28 melanoma = tested on: SK-MEL-28 melanoma
SK-MEL-5 melanoma = tested on: SK-MEL-5 melanoma
SN12C renal = tested on: SN12C renal
SW-620 colon = tested on: SW-620 colon
UACC-257 melanoma = tested on: UACC-257 melanoma
UACC-62 melanoma = tested on: UACC-62 melanoma
CCRF-CEM leukemia = tested on: CCRF-CEM leukemia
HS 578T breast = tested on: HS 578T breast
A498 renal = tested on: A498 renal

| Compound | TGI (HL-60(TB) leukemia) | TGI (SK-MEL-28 melanoma) [µM] | TGI (SK-MEL-5 melanoma) | TGI (SN12C renal) | TGI (SW-620 colon) | TGI (UACC-257 melanoma) [µM] | TGI (UACC-62 melanoma) [µM] | TGI (CCRF-CEM leukemia) [µM] | TGI (HS 578T breast) [µM] | TGI (A498 renal) | GI50 (HS 578T breast) [µM] | GI50 (HL-60(TB) leukemia) | GI50 (CCRF-CEM leukemia) | GI50 (SN12C renal) | GI50 (UACC-62 melanoma) [µM] | GI50 (A498 renal) [µM] | GI50 (SK-MEL-28 melanoma) [µM] | GI50 (SK-MEL-5 melanoma) [µM] | GI50 (UACC-257 melanoma) [µM] |
| --- | --- | --- | --- | --- | --- | --- | --- | --- | --- | --- | --- | --- | --- | --- | --- | --- | --- | --- | --- |
| COc1cc(C2C(=O)C(Cl)N2Nc2nc(C)cc(=O)[nH]2)cc(OC)c1OC (configuration not stated) | 33.7 µM | 49.6 | 26.5 µM | 53.1 µM | > 100 µM | > 100 | – | – | – | – | – | – | – | – | – | – | – | – | – |
| CCCCCCCCCCCCCCCCCC(=O)OCC1OC(OC)C(NC(=O)N(CCCl)N=O)C(O)C1O (configuration not stated) | – | 53.1 | > 100 µM | 30.3 µM | 47.8 µM | 39.4 | 23.3 | – | – | – | – | – | – | – | – | – | – | – | – |
| COc1cccc(NC(=O)CC(=O)NN2C(=O)/C(=C/c3ccc(N(CCC#N)CCC#N)cc3)N=C2c2cc([N+](=O)[O-])ccc2Cl)c1 | – | > 100 | > 100 µM | > 100 µM | > 100 µM | – | > 100 | > 100 | – | – | – | – | – | – | – | – | – | – | – |
| O=C1CS(=O)(=O)C(c2cccc(Oc3ccccc3)c2)N1C1CC1 (configuration not stated) | > 100 µM | > 100 | 39.3 µM | > 100 µM | > 100 µM | > 100 | > 100 | > 100 | > 100 | – | – | – | – | – | – | – | – | – | – |
| O=S(=O)(O)c1ccc2c(N=Nc3ccccc3)c(O)ccc2c1 | > 100 µM | > 100 | > 100 µM | > 100 µM | > 100 µM | > 100 | > 100 | > 100 | > 100 | > 100 µM | – | – | – | – | – | – | – | – | – |
| C/C(=C\C(=N\NC(=N)N)c1ccccc1)c1ccccc1 | – | 8.86 | 0.76 µM | 3.09 µM | 1.73 µM | – | 3.23 | 1.8 | 18.5 | – | – | – | – | – | – | – | – | – | – |
| Cn1c(=O)ccc2c(=O)c3ccccc3oc21 | > 100 µM | > 100 | > 100 µM | > 100 µM | > 100 µM | – | > 100 | > 100 | > 100 | > 100 µM | – | – | – | – | – | – | – | – | – |
| Cc1cc(=O)n2c3c(c4c(cc13)c(CN(C)C)cc(=O)n4C)OC2 | > 100 µM | > 85.8 | 45.1 µM | > 100 µM | > 82.3 µM | > 70.5 | 30.1 | > 100 | 41.1 | > 100 µM | – | – | – | – | – | – | – | – | – |
| C=C1CC2C3C=C(C)C4=CC(=O)CC[C@]4(C)C3CC[C@]2(C)[C@@]1(OC(C)=O)C(C)=O (some centres not stated) | 5.53 µM | – | – | > 100 µM | – | – | > 100 | > 100 | > 100 | > 100 µM | 43.5 | 2.55 µM | 2.11 µM | 1.16 µM | 3.38 | > 100 | – | – | – |
| COP(=O)(OC)[C@H](O)[C@H]1C[C@@H]1c1ccccc1 | > 100 µM | > 100 | > 100 µM | – | > 100 µM | > 100 | > 100 | – | > 100 | > 100 µM | – | – | – | – | – | – | – | – | – |
| CCCC[C@H]1C(=O)O[C@H](C)[C@H](NC(=O)c2cccc(NC=O)c2OC)C(=O)O[C@@H](C)[C@@H]1OC(=O)CC(C)C (tested in a mixture with another compound) | 35.8 µM | 52.8 | 27.7 µM | 44.2 µM | 64.3 µM | 38.6 | 18.5 | 24.4 | 63.1 | 22.4 µM | – | – | – | – | – | – | – | – | – |
| O=CN1CCC23CC(O)CCC2C1Cc1cc(Oc2nnnn2-c2ccccc2)cc(O)c13 (configuration not stated) | > 100 µM | > 100 | > 100 µM | > 100 µM | > 100 µM | > 100 | > 100 | > 100 | > 100 | > 100 µM | – | – | – | – | – | – | – | – | – |
| CN1NC(c2ccccc2)=C(C#N)C(=O)CC1c1ccc(F)cc1 (configuration not stated) | > 100 µM | > 100 | > 100 µM | > 100 µM | > 100 µM | > 100 | – | > 100 | – | > 100 µM | – | – | – | – | – | – | – | – | – |
| O=c1[nH]c2cc([N+](=O)[O-])c(N/N=C/c3ccc(Cl)cc3Cl)c([N+](=O)[O-])c2[nH]1 | > 100 µM | > 100 | > 100 µM | > 100 µM | > 100 µM | > 100 | > 100 | > 100 | > 100 | 48.7 µM | – | – | – | – | – | – | – | – | – |
| COc1ccc(N=Nc2c(N)nn(C)c2N)cc1 | > 100 µM | > 100 | > 100 µM | > 100 µM | > 100 µM | > 100 | > 100 | > 100 | – | > 100 µM | – | – | – | – | – | – | – | – | – |
| CCOC(=O)C12CC(C)=C(C)CC1CCCc1ccccc12 (configuration not stated) | 29.5 µM | 92.7 | 37.5 µM | 58.3 µM | 51.8 µM | 46.2 | > 100 | 41.6 | > 100 | 62.7 µM | – | – | – | – | – | – | – | – | – |
| O=c1[nH]c(=O)n(CCOCP(=O)(O)O)nc1Br | > 100 µM | > 100 | > 100 µM | > 100 µM | > 100 µM | – | – | > 100 | > 100 | > 100 µM | – | – | – | – | – | – | – | – | – |
| Cn1cc(-c2nnc(-c3ccc(Cl)cc3)[nH]c2=O)c2ccccc21 | > 24 µM | > 100 | > 43.7 µM | > 64 µM | > 64.6 µM | > 24.3 | > 51.9 | > 22.7 | > 100 | > 61 µM | – | – | – | – | – | – | – | – | – |
| C[C@H]1CCC/C=C/[C@@H]2C[C@H](O)C[C@H]2[C@H](O)/C=C/C(=O)O1 | 1.82 µM and > 15.2 µM | – | < 0.01 µM and 0.0127 µM and 0.0164 µM | 3.95 µM and 0.491 µM | 0.0856 µM and 0.118 µM and 0.124 µM | – | – | 5.53 | > 100 | 0.0821 µM and 0.0376 µM | – | 0.0281 µM and 0.167 µM and 0.115 µM | < 0.0183 µM and 0.0501 µM and 0.0981 µM | 0.0294 µM and 0.0846 µM and 0.0485 µM | – | < 0.0149 | 0.0292 | < 0.0122 | 0.0132 |
